Legend:
Format in all cases: physicochemical
[1] = Average particle size of nucleic acid lipid particle (NICOMP 380ZLS)
Procedure: The particle size of the liposome was measured using Zeta Potential/Particle Sizer NICOMP™ 380ZLS (Particle Sizing Systems, LLC). In the tables, the average particle size is indicated by a volume-average particle size, and the numeric value following ±represents a deviation.

[2] = Rate of encapsulation of polynucleotide/mRNA (Quant-iT RiboGreen, with and without Triton X-100)
Procedure: The rate of encapsulation of the double-stranded polynucleotide was measured using Quant-iT RiboGreen RNA Assay kit (Invitrogen Corp.) according to the attached document.
(§1) Specifically, the double-stranded polynucleotide in the nucleic acid lipid particle dispersion was quantified in the presence and absence of a 0.015% Triton X-100 detergent, and the rate of encapsulation was calculated according to the following expression: {[Amount of the double-stranded polynucleotide in the presence of the detergent]−[Amount of the double-stranded polynucleotide in the absence of the detergent]}/[Amount of the double-stranded polynucleotide in the presence of the detergent]}×100(%) (3) Ratio of Double-Stranded Polynucleotide to Lipid
The rate of encapsulation of the mRNA was measured using Quant-iT RiboGreen RNA Assay kit (Invitrogen Corp.) according to the attached document.
as §1, with “mRNA” for “double-stranded polynucleotide”, “mRNA” for “Double-Stranded Polynucleotide”

[3] = Ratio of polynucleotide/mRNA to lipid (wt/wt)
Procedure: The nucleic acid lipid particle dispersion was mixed with acetonitrile and chloroform at a ratio of 1:1:1 and centrifuged at 15,000 rpm for 2 minutes. Then, the aqueous layer obtained as an upper layer was recovered, followed by the extraction of the double-stranded polynucleotide. The amount of the double-stranded polynucleotide in the sample was measured by ion-exchange chromatography (system: Agilent 1100 series, column: TSKgel DEAE-2SW (2.6×150 mm) (Tosoh Corp), buffer A: 20% acetonitrile, buffer B: 20% acetonitrile and 1.6 M ammonium formate, gradient (B %): 30-55% (0-20 min), flow rate: 1 mL/min, temperature: 40° C., detection: 260 nm).
The amount of the phospholipid in the nucleic acid lipid particle dispersion was measured using Phospholipid C-Test Wako (Wako Pure Chemical Industries Ltd.) according to the attached document. Specifically, the phospholipid in the sample was quantified in the presence of a 1% Triton X-100 detergent.
(§2) The amounts of cholesterol and LP in the nucleic acid lipid particle dispersion were measured by reverse-phase chromatography (system: Agilent 1100 series, column: Chromolith Performance RP-18 endcapped 100-3 monolithic HPLC-column (Merck), buffer A: 0.01% trifluoroacetic acid, buffer B: 0.01% trifluoroacetic acid and methanol, gradient (B %): 87-92% (0-10 min), flow rate: 2 mL/min, temperature: 50° C., detection: 205 nm).
(§3) The total amount of lipids was calculated from the amount of the phospholipid and the compositional ratio of lipid components constituting the liposome, and the ratio of the polynucleotide to the lipid was calculated from the aforementioned amount of the polynucleotide and the total amount of lipids according to the following expression: [Double-stranded polynucleotide concentration]/[Total lipid concentration] (wt/wt)
as §3, with “phospholipid, the amount of cholesterol, and the amount of LP,” for “phospholipid”
The amount of the double-stranded polynucleotide in a sample from the nucleic acid lipid particle dispersion was measured in the presence of a 5% Triton X-100 detergent by ion-exchange chromatography (system: Agilent 1100 series, column: DNAPac PA200 (4×250 mm) (Thermo Fisher Scientific K.K.), buffer A: 10 mM Tris, 25 mM sodium perchlorate, and 20% ethanol, pH 7.0, buffer B: 10 mM Tris, 250 mM sodium perchlorate, and 20% ethanol, pH 7.0, gradient (B %): 20-70% (0-15 min), flow rate: 0.5 mL/min, temperature: 40° C., detection: 260 nm).
as §2, with “82-92%” for “87-92%”
The total amount of lipids was calculated from the amount of the phospholipid, the amount of cholesterol, and the amount of LP, and the compositional ratio of lipid components constituting the liposome, and the ratio of the mRNA to the lipid was calculated from the “amount of the mRNA in the presence of the detergent” of the preceding paragraph (2) according to the following expression: [mRNA concentration in the presence of the detergent]/[Total lipid concentration] (wt/wt)

[4] = particles of Example 31, volume-average particle size ± deviation
[5] = particles of Example 31: DSPC:Chol:LP:PEG-C-DMA=20:48:30:2, CT-157/CT-169 double-stranded polynucleotide

CCCCC/C=C\C/C=C\CCCCCCCC(CCCCCCCCCC)OC(=O)OCCCN(C)C (stereo not drawn) [Example 8, 3-Dimethylaminopropyl(9Z,12Z)-octacosa-19,22-dien-11-yl Carbonate]
Average particle size [1, 4]: 157 ± 46 nm
Rate of polynucleotide encapsulation [2, 5]: 96.4%
Ratio of polynucleotide to lipid siRNA/lipid ([3]; particles of Example 31, total lipids calculated from phospholipid, cholesterol and LP amounts (Table 4)): 0.072 wt/wt

CCCCC/C=C\C/C=C\CCCCCCCCC(CCCCCCCC/C=C\C/C=C\CCCCC)OC(=O)OCCN(C)C [Reference Example 2, 2-(Dimethylamino)ethyl(6Z,9Z,28Z,31Z)-heptatriaconta-6,9,28,31-tetraen-19-yl Carbonate, reference compound]
Average particle size ([1]; Example 55: particles prepared as in Example 31, ± deviation): 165 ± 11 nm
Average particle size [1, 4]: 139 ± 50 nm
Rate of polynucleotide encapsulation ([2]; Example 55: particles prepared as in Example 31 (β-catenin double-stranded polynucleotide)): 94%
Rate of polynucleotide encapsulation [2, 5]: 89.0%
Ratio of polynucleotide to lipid siRNA/lipid ([3]; Example 55: particles prepared as in Example 31): 0.055 wt/wt
Ratio of polynucleotide to lipid siRNA/lipid ([3]; particles of Example 31, total lipids calculated from phospholipid amount and compositional ratio (Table 3)): 0.104 wt/wt
